Source: patent US20230002324A1, “NAPHTHOQUINONE DERIVATIVES FOR TREATMENT OF OXIDATIVE STRESS DISORDERS” (PTC THERAPEUTICS, INC., priority 2019, published 2023)

What follows are molecules tested on Q7 cells (ST HDH Q7/7; immortalized mouse striatal cells) (assay: Q7 Cystine Deprivation cell survival (rescue) assay). Conditions: Q7 cells, cystine-free medium, 18 h, Cell Titer Glo, 50% relative viability vs Vitamin K2 (1 micromolar), read-out: Q7 Cystine Deprivation Survival EC50.
Assay type: cell-based
Source text: (§1) In neuronal cells excess extracellular glutamate inhibits the cystine/glutamate antiporter leading to intracellular cysteine depletion, GSH depletion, reactive oxygen species (ROS) production and cell death, a phenomenon termed oxidative glutamate toxicity, oxytosis, or ferroptosis. […] Q7 cells (ST HDH Q7/7; immortalized mouse striatal cells) challenged with cystine-free media or the selective, irreversible GPX4 inhibitor, methyl (1S,3R)-2-(2-chloroacetyl)-1-(4-(methoxycarbonyl)phenyl)-2,3,4,9-tetrahydro-1H-pyrido[3,4-b]indole-3-carboxylate (hereafter referred to as RSL3), recapitulate this phenotype, as do normal human fibroblasts (NHF) challenged with RSL3. An initial screen was performed to identify compounds effective in rescuing Q7 and/or NHF cells from death resulting from cystine deprivation or RSL3 challenge. This method is further described in Yonezawa et al., J. Neurochem 67, 566-573 (1996), Li et al., J Neurosci., 23, 5816-5826 (2003), Yang and Stockwell, Chem Biol., 15: 234-45 (2008), and Yang et al., Cell 156, 317-331 (2014). See also Hinman A, Holst C R, Latham J C, et al. Vitamin E hydroquinone is an endogenous regulator of ferroptosis via redox control of 15-lipoxygenase. PLoS One. 2018; 13(8):e0201369. Published 2018 Aug. 15. doi:10.1371/journal.pone.0201369; and Kahn-Kirby A H, Amagata A, Maeder C I, et al. Targeting ferroptosis: A novel therapeutic strategy for the treatment of mitochondrial disease-related epilepsy. PLoS One. 2019; 14(3):e0214250. Published 2019 Mar. 28. doi:10.1371/journal.pone.0214250.
(§2) DMEM (Catalog no. 11995-040), DMEM without Cystine (Catalog no. 21013-024), DMEM without Glucose (Catalog A1443001), PBS (Phosphate buffered saline), Penicillin-streptomycin mix, L-Glutamine, Glucose, Phenol Red, and Pyruvate were purchased from ThermoFisher Scientific (Gibco). Fetal Bovine Serum was obtained from Mediatech, Inc., or Sigma Aldrich. Mouse striatum derived ST HDH Q7/7 (Q7) and normal human skin fibroblast (NHF, product number GM21811) cells were obtained from the Coriell Institute. Methionine and Vitamin K2 were purchased from Sigma Aldrich. RSL3 was synthesized as previously described (see e.g. US Patent Publication US2010/0081654). Cell Titer Glo 2.0 was purchased from Promega. Q7 cell culture medium (Q7 growth medium) was made by combining 50 mL Fetal Bovine Serum, 100 U/mL penicillin, and 100 microgram/mL streptomycin; DMEM was added to make the volume up to 500 mL. Assay medium for the Cystine Deprivation assay was prepared by combining 50 mL Fetal Bovine Serum, 100 U/mL penicillin, 100 microgram/mL streptomycin, 4 mM L-Glutamine, 1 mM Pyruvate and 30 mg/L Methionine; DMEM without Cystine was added to make the volume up to 500 mL. NHF cell culture medium (NHF growth medium) was made by combining 50 mL Fetal Bovine Serum, 100 U/mL penicillin, 100 microgram/mL streptomycin, 2.8 mL 20% Glucose solution (final concentration 6 mM), L-glutamine (final concentration 2 mM), phenol red (final concentration 15 mg/L); DMEM without Glucose was added to make the volume up to 500 mL. Assay medium for the RSL3 challenge assay was identical to Growth medium. While not in use during the course of the experiments, these solutions were stored at 4° C. The cells were grown in 150-cm^2 tissue culture-treated flasks. Every third or fourth day, the cells were sub-cultured by trypsinization and re-seeded at a cell density of 600,000 (Q7) or 300,000 (NHF) cells per flask.
(§3) Q7 or NHF cells were cultured routinely as described herein. For 384-well cell survival assays, cells were seeded in clear bottom, black wall 384-well tissue culture-treated polystyrene plates by re-suspending a cell suspension at a density of 50,000 cells/mL in growth medium, then dispensing 60 microliters of cell suspension per well using either an electronic multichannel pipette or a Multidrop™ Combi Reagent Dispenser (ThermoFisher Scientific), corresponding to 3,000 cells/well. […]

Structure (SMILES) | EC50 [nM]
CCCC1=C(Cc2cc(C(F)(F)F)c(F)cn2)C(=O)c2ccccc2C1=O [Example 119, 2-((5-fluoro-4-(trifluoromethyl)pyridin-2-yl)methyl)-3-propylnaphthalene-1,4-dione] | < 50
O=C1C(CCC2COC2)=C(Cc2ccc(F)cn2)C(=O)c2ccccc21 [Example 121, 2-((5-fluoropyridin-2-yl)methyl)-3-(2-(oxetan-3-yl)ethyl)naphthalene-1,4-dione] | < 50
COC(C1=C(C)C(=O)c2ccccc2C1=O)c1ccc(C(F)(F)F)cn1 (stereo not drawn) [Example 124, 2-(methoxy(5-(trifluoromethyl)pyridin-2-yl)methyl)-3-methylnaphthalene-1,4-dione] | < 50
O=C1C(O)=C(Cc2ccc(C(F)(F)F)cn2)C(=O)c2ccccc21 [Example 125, 2-hydroxy-3-((5-(trifluoromethyl)pyridin-2-yl)methyl)naphthalene-1,4-dione] | > 1000

Each molecule was assayed on normal human fibroblasts (NHF, GM21811) (assay: NHF GM21811 RSL3 challenge cell survival (rescue) assay). Conditions: Fibroblast, NHF cells, RSL3 2 micromolar, 48 h, Cell Titer Glo, read-out: NHF GM21811 RSL3 Survival EC50.
Assay type: cell-based
Source text: as §1, §2, §3

Structure (SMILES) | EC50 [nM]
CCC1=C(Cc2ccc(C(F)(F)F)cn2)C(=O)c2cccc(F)c2C1=O [Example 61, 3-ethyl-5-fluoro-2-((5-(trifluoromethyl)pyridin-2-yl)methyl)naphthalene-1,4-dione] | < 50
CCC1=C(Cc2ccc(C(C)(F)F)cn2)C(=O)c2c(F)ccc(F)c2C1=O [Example 62, 2-((5-(1,1-difluoroethyl)pyridin-2-yl)methyl)-3-ethyl-5,8-difluoronaphthalene-1,4-dione] | < 50
CCC1=C(Cc2ccc(C(F)(F)F)cn2)C(=O)c2c(ccc(F)c2F)C1=O [Example 63, 2-ethyl-5,6-difluoro-3-((5-(trifluoromethyl)pyridin-2-yl)methyl)naphthalene-1,4-dione] | < 50
CCC1=C(Cc2ncc(C(F)(F)F)cc2F)C(=O)c2c(F)cc(F)cc2C1=O [Example 64, 2-ethyl-5,7-difluoro-3-((3-fluoro-5-(trifluoromethyl)pyridin-2-yl)methyl)naphthalene-1,4-dione] | < 50
O=C1C(C2CC2)=C(Cc2ccc(C(F)(F)F)cn2)C(=O)c2c(F)cc(F)cc21 [Example 65, 2-cyclopropyl-5,7-difluoro-3-((5-(trifluoromethyl)pyridin-2-yl)methyl)naphthalene-1,4-dione] | < 50
CCC1=C(Cc2cc(C(F)(F)F)c(C)cn2)C(=O)c2c(F)ccc(F)c2C1=O [Example 66, 2-ethyl-5,8-difluoro-3-((5-methyl-4-(trifluoromethyl)pyridin-2-yl)methyl)naphthalene-1,4-dione] | < 50
CCC1=C(Cc2ccc(C(F)F)cn2)C(=O)c2c(F)cc(F)cc2C1=O [Example 67, 3-((5-(difluoromethyl)pyridin-2-yl)methyl)-2-ethyl-5,7-difluoronaphthalene-1,4-dione] | < 50
CCC1=C(Cc2cccc(OC)n2)C(=O)c2c(F)ccc(F)c2C1=O [Example 89, 2-ethyl-5,8-difluoro-3-((6-methoxypyridin-2-yl)methyl)naphthalene-1,4-dione] | < 50
O=C1C(Cc2ccc(C(F)(F)F)cn2)=C(CC2COC2)C(=O)c2c(F)ccc(F)c21 [Example 90, 5,8-difluoro-2-(oxetan-3-ylmethyl)-3-((5-(trifluoromethyl)pyridin-2-yl)methyl)naphthalene-1,4-dione] | < 50
O=C1C(Cc2ccc(C(F)(F)F)cn2)=C(C2CC2)C(=O)c2c(F)ccc(F)c21 [Example 91, 2-cyclopropyl-5,8-difluoro-3-((5-(trifluoromethyl)pyridin-2-yl)methyl)naphthalene-1,4-dione] | < 50
CCC1=C(Cc2ccc(F)cn2)C(=O)c2c(F)cc(F)cc2C1=O [Example 92, 2-ethyl-5,7-difluoro-3-((5-fluoropyridin-2-yl)methyl)naphthalene-1,4-dione] | < 50
CCC1=C(Cc2ccc(C(F)(F)F)c(C#N)n2)C(=O)c2c(F)cc(F)cc2C1=O [Example 93, 6-((3-ethyl-6,8-difluoro-1,4-dioxo-1,4-dihydronaphthalen-2-yl)methyl)-3-(trifluoromethyl)picolinonitrile] | < 50
CCC1=C(Cc2ncc(C(F)(F)F)cc2Cl)C(=O)c2c(F)cc(F)cc2C1=O [Example 94, 3-((3-chloro-5-(trifluoromethyl)pyridin-2-yl)methyl)-2-ethyl-5,7-difluoronaphthalene-1,4-dione] | < 50
N#Cc1nc(CC2=C(C3CC3)C(=O)c3cc(F)cc(F)c3C2=O)ccc1C(F)(F)F [Example 95, 6-((3-cyclopropyl-6,8-difluoro-1,4-dioxo-1,4-dihydronaphthalen-2-yl)methyl)-3-(trifluoromethyl)picolinonitrile] | < 50
N#Cc1nc(CC2=C(C3CC3)C(=O)c3cc(F)ccc3C2=O)ccc1C(F)(F)F [Example 96, 6-((3-cyclopropyl-6-fluoro-1,4-dioxo-1,4-dihydronaphthalen-2-yl)methyl)-3-(trifluoromethyl)picolinonitrile] | < 50
CCC1=C(Cc2ccc(C)c(OC)n2)C(=O)c2c(F)ccc(F)c2C1=O [Example 97, 2-ethyl-5,8-difluoro-3-((6-methoxy-5-methylpyridin-2-yl)methyl)naphthalene-1,4-dione] | < 50
[2H]C([2H])([2H])C1=C(Cc2ccc(C(F)(F)F)c(C(N)=O)n2)C(=O)c2c(F)ccc(F)c2C1=O [Example 126, 6-((5,8-difluoro-3-(methyl-d3)-1,4-dioxo-1,4-dihydronaphthalen-2-yl)methyl)-3-(trifluoromethyl)picolinamide] | < 50
[2H]C([2H])([2H])C1=C(Cc2ccc(C(F)(F)F)c(C(=O)O)n2)C(=O)c2c(F)ccc(F)c2C1=O [Example 127, 6-((5,8-difluoro-3-(methyl-d3)-1,4-dioxo-1,4-dihydronaphthalen-2-yl)methyl)-3-(trifluoromethyl)picolinic acid] | 50 to 250
CCC1=C(Cc2ccc(F)c(C#N)n2)C(=O)c2c(F)ccc(F)c2C1=O [Example 132, 6-((3-ethyl-5,8-difluoro-1,4-dioxo-1,4-dihydronaphthalen-2-yl)methyl)-3-fluoropicolinonitrile] | < 50
CCC1=C(Cc2ccc(CC(F)(F)F)cn2)C(=O)c2c(F)ccc(F)c2C1=O [Example 133, 2-ethyl-5,8-difluoro-3-((5-(2,2,2-trifluoroethyl)pyridin-2-yl)methyl)naphthalene-1,4-dione] | < 50
CCC1=C(Cc2cc(C(F)(F)F)c(OC)cn2)C(=O)c2c(F)ccc(F)c2C1=O [Example 134, 2-ethyl-5,8-difluoro-3-((5-methoxy-4-(trifluoromethyl)pyridin-2-yl)methyl)naphthalene-1,4-dione] | < 50
CCC1=C(Cc2cc(C)c(F)cn2)C(=O)c2c(F)ccc(F)c2C1=O [Example 135, 2-ethyl-5,8-difluoro-3-((5-fluoro-4-methylpyridin-2-yl)methyl)naphthalene-1,4-dione] | < 50
CCC1=C(Cc2ccc(C(F)F)cn2)C(=O)c2c(F)ccc(F)c2C1=O [Example 136, 2-((5-(difluoromethyl)pyridin-2-yl)methyl)-3-ethyl-5,8-difluoronaphthalene-1,4-dione] | < 50
